3 compounds from publication PMC9026967, “Discovery of a Novel Inhibitor Structure of Mycobacterium tuberculosis Isocitrate Lyase” (Molecules, 2022) can be followed below.

Like-named read-outs stand apart in the source and are kept apart here.

For assay [1], the target named is T1, M. tuberculosis isocitrate lyase (MtICL) (Mycobacterium tuberculosis, UniProt P9WKK7).
T1 construct: gene icl
T1 sequence (P9WKK7 1-428): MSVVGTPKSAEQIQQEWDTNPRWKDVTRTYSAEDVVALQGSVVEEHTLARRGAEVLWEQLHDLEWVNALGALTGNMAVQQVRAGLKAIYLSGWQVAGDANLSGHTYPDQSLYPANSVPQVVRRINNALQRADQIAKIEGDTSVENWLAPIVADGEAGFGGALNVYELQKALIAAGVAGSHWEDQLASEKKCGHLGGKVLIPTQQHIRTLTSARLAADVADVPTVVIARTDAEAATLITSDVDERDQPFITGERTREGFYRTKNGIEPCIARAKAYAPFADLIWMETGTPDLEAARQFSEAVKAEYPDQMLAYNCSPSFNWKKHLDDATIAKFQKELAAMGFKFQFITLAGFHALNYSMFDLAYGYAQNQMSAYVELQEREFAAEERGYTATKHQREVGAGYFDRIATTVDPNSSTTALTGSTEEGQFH
The assay can be described thus: biochemical.

Assay [2] has as its target T1, M. tuberculosis isocitrate lyase (MtICL). The assay is described as follows: biochemical. This is another data set of the same source.

In the case of `O=C(O)C(=O)CBr` [3-BP, 3-bromopyruvic acid], inhibition in assay [1] was half-maximal at 63.6 ± 2.8 µM (IC50).

In the case of `C=C(CC(=O)O)C(=O)O` [IA, itaconic acid], in assay [1], it took 38.6 ± 0.8 µM to reach half-maximal inhibition (IC50). As to `O=c1ccc2ccc(O)c(O)c2o1` [MOL005118, Daphnetin], the IC50 in assay [2] is 24.4 µM.

A word on the IC50: it is the concentration that inhibits the measured activity by half.
